Values joined by “and” are separate entries in the source; they are usually repeats but may differ in a detail not shown here. Equal entries are not always repeated. “Also recorded” adds a separate entry of the source.
Columns and labels:
[1] = Degradation in dilute sulfuric acid; assay type: physicochemical; settings: for stability to acid: 1 mol % H2SO4 (Fig. 1b); for degradation in acid: warming, 1% H2SO4, 0.18 M, aqueous
[2] = Stability in mouse plasma; assay type: in vitro ADME; settings: for T½ in mouse plasma / half-life at 2 µM: 37 °C, incubation to 120 min, extrapolated half-life, n = 2; for half-life at 2 µM / remaining at 0 h, 2 µM / remaining at 10 min, 2 µM / remaining at 0.5 h, 2 µM / remaining at 1 h, 2 µM / remaining at 2 h, 2 µM: male, CD-1, mouse, plasma; for half-life at 2 µM: read-out: T½ in mouse plasma; for remaining at 0 h, 2 µM: 0 min; for remaining at 0.5 h, 2 µM: 30 min; for remaining at 1 h, 2 µM: 60 min; for remaining at 2 h, 2 µM: 120 min
Text: (§1) We investigated the relative rates of esterase-mediated hydrolysis[17] observed in mouse and human plasma, to evaluate potential for future translational applications. […] Due to the high stability of the C15 lactone, identified above, combined with the kinetic lability and reversible opening of the C11 lactone identified previously, enzymatic degradation in serum likely reflects a combination of reversible C11 hydrolysis[38] (unaffected by C5 methylation) and irreversible C15 hydrolysis (obstructed by C5 methylation)[17]. No prior studies have identified PXN modifications that enhance metabolic stability, partly due to the difficulty of synthetic modification and partly due to the prior incorrect assignment of the site of kinetic hydrolysis (C11 vs. C15)[38].
(§2) Test compound working solution: 5 μL of tested compound stock solution (10 mM in DMSO) were diluted with 495 μL of DMSO (concentration: 100 μM, 100% DMSO). Propantheline bromide working solution: 5 μL of propantheline bromide stock solution (10 mM in DMSO) were diluted with 495 μL of H2O (concentration: 100 […]
(§3) Supplementary Table 6. Test system.
(§4) Species/ Matrix Minimum No. of Anticoagulant Vendor
(§5) CD-1 Mouse 20 Male EDTA-K2 Beijing Vital River Laboratory
(§6) Human Plasma 3 Male & 3 Female EDTA-K2 BioreclamationIVT
(§7) The pooled frozen plasma was thawed in a water bath at 37 °C prior to experiment. Plasma was centrifuged at 1968 g (4000 rpm) for 5 min and the clots were removed. Using an Apricot automation work station, 98 μL/well of blank plasma were added to all 96-well reaction plates. (Blank, T0, T10, T30, T60 and T120) . An Apricot automation workstation was used to add 2 μL/well of working solution (100 μM) to all reaction plates except Blank. (T0, T10, T30, T60 and T120) . All reaction plates containing mix tures of compound a nd plasma were incubated at 37 °C in water bath. The reaction plates were incubated at 37 °C, and timer was started. At the end of incubation, 400 μL of stock solution was added (200 ng/mL tolbutamide and 200 ng/mL labetalol in MeCN) to precipitate protein and mixed thoroughly. Each plate was sealed and shaken for 20 minutes, then centrifuged at 1968 g (4000 rpm) and 4 °C for 20 minutes. After centrifugation, an Apricot automation workstation was used to transfer 150 μL supernatant. Each bioanalysis plate was sealed and shaken for 10 minutes prior to LC -MS/MS […]
(§8) The % remaining of test compound after incubation in plasma was calculated using following equation:
(§9) % Remaining= 100 x (PAR at appointed incubation time / PAR at T0 time) where PAR is the peak area ratio of analyte versus internal standard (IS) The appointed incubation time points are T0 (0 min), Tn (n=0, 10, 30, 60, 120 min)
(§10) Supplementary Table 7. %Remaining of test compound in two plasmas.
(§11) Compound Time point (min) % Remaining T½ (min)

[3] = reversible solvolysis; cited from earlier work
[4] = Methanolysis with NaOMe in d4-methanol (1H NMR monitoring); assay type: physicochemical; settings: for stability to catalytic NaOMe: 5 mol % NaOMe, 22 °C; for stability to catalytic NaOMe / competition experiment, 1:1 mixture of PXN and 5MePXN: d4-methanol; for concentration in competitive methanolysis: 5 mol% NaOMe in CD3OD; for competition experiment, 1:1 mixture of PXN and 5MePXN: 5 mol% NaOMe
Text: Even addition of 2 equivalents NaOMe had no effect on 5MePXN (Fig. 3b and SI), far exceeding the tolerance of PXN. Thus, C5 methylation stabilized PXN against buffered water hydrolysis, acidic hydrolysis and alkaline methanolysis (Fig. 3a–d, see also ref. [21]). This profound stabilization highlighted the unique effects to reactivity imparted by C5 methylation. Furthermore, it opened a window into understanding differences in blood degradation of 5MePXN.
Supplementary Figure 4. Competitive methanolysis of PXN and 5MePXN under 5 mol% NaOMe in CD3OD.
(a) 0 min, (b) 10 min, (c) 30 min, (d) 60 min, (e) 100 min, (f) 140 min, (g) 280 min.
Supplementary Table 5. Concentration of each component in competitive methanolysis. […]
Supplementary Figure 5. Concentration of PXN, d5-33, d9-34 and 5MePXN vs. time (min) 3.4 Methanolysis of 5MePXN under different equivalent of NaOMe in CD3OD To a solution of 5MePXN (2.5 mg, 0.0082 mmol ) in CD 3OD (0.4 mL) in 5 mm NMR tube was added a solution of NaOMe in CD3OD (0.1, 0.2, 0.5, 0.8, 1.0, 1.5 and 2.0 equiv) at room temperature. The NMR tube was shaken bottom up 5 times to make solution homogenous, then measured by 1H NMR.

[5] = D2O, 8.2 pH*; previously observed; cited from earlier work
[6] = Stability in human plasma; assay type: in vitro ADME; settings: for T½ in human plasma / half-life at 2 µM: 37 °C, incubation to 120 min, extrapolated half-life, n = 2; for half-life at 2 µM / remaining at 0 h, 2 µM / remaining at 10 min, 2 µM / remaining at 0.5 h, 2 µM / remaining at 1 h, 2 µM / remaining at 2 h, 2 µM: both sexes, human, plasma; for half-life at 2 µM: read-out: T½ in human plasma; for remaining at 0 h, 2 µM: 0 min; for remaining at 0.5 h, 2 µM: 30 min; for remaining at 1 h, 2 µM: 60 min; for remaining at 2 h, 2 µM: 120 min
Text: as §1, §2, §3, §4, §5, §6, §7, §8, §9, §10, §11

rat GABAA ion channel = settings: preliminary screen; read-out: IC50, competition with [3H]TBOB for binding to rat cerebral cortex; cited from earlier work

## C=C(C)[C@@H]1[C@H]2OC(=O)[C@@H]1[C@]1(O)C[C@H]3O[C@]34C(=O)O[C@H]2[C@]14C [PXN, picrotoxinin]
[1]
  stability to acid: unstable
  degradation in acid: clean conversion to picrotoxic acid (32) in 24 h
[2]
  T½ in mouse plasma: 1.62 h
  half-life at 2 µM: 1.62 h
  remaining at 0 h, 2 µM: 100%
  remaining at 10 min, 2 µM: 102%
  remaining at 0.5 h, 2 µM: 87.1%
  remaining at 1 h, 2 µM: 67.4%
  remaining at 2 h, 2 µM: 44.7%
[3]
  half-life in mouse plasma: ~ 1 h
[4]
  stability to catalytic NaOMe: equimolar mixture of d5-methyl picrotoxate (d5-33) and d9-dimethyl picrotoxinin dicarboxylate (d9-34) in 6 h; also recorded: unstable
  competition experiment, 1:1 mixture of PXN and 5MePXN: completely degraded
[4]; 0 min
  concentration in competitive methanolysis: 3424.6 µM
[4]; 5 min
  concentration in competitive methanolysis: 2952 µM
[4]; 10 min
  concentration in competitive methanolysis: 2500 µM
[4]; 15 min
  concentration in competitive methanolysis: 2181 µM
[4]; 20 min
  concentration in competitive methanolysis: 1935 µM
[4]; 25 min
  concentration in competitive methanolysis: 1679 µM
[4]; 30 min
  concentration in competitive methanolysis: 1564 µM
[4]; 35 min
  concentration in competitive methanolysis: 1495 µM
[4]; 40 min
  concentration in competitive methanolysis: 1464 µM
[4]; 45 min
  concentration in competitive methanolysis: 1375 µM
[4]; 50 min
  concentration in competitive methanolysis: 1307 µM
[4]; 55 min
  concentration in competitive methanolysis: 1223 µM
[4]; 60 min
  concentration in competitive methanolysis: 1119 µM
[4]; 65 min
  concentration in competitive methanolysis: 1044 µM
[4]; 70 min
  concentration in competitive methanolysis: 962 µM
[4]; 75 min
  concentration in competitive methanolysis: 925.6 µM
[4]; 80 min
  concentration in competitive methanolysis: 856.1 µM
[4]; 85 min
  concentration in competitive methanolysis: 800.1 µM
[4]; 90 min
  concentration in competitive methanolysis: 773 µM
[4]; 95 min
  concentration in competitive methanolysis: 730.2 µM
[4]; 100 min
  concentration in competitive methanolysis: 704.7 µM
[4]; 110 min
  concentration in competitive methanolysis: 611.5 µM
[4]; 120 min
  concentration in competitive methanolysis: 560.5 µM
[4]; 130 min
  concentration in competitive methanolysis: 515 µM
[4]; 140 min
  concentration in competitive methanolysis: 466.6 µM
[4]; 280 min
  concentration in competitive methanolysis: 215.8 µM
[5]
  t1/2 of degradation (pseudo-first order): 60 h
[6]
  T½ in human plasma: 1.8 h
  half-life at 2 µM: 1.8 h
  remaining at 0 h, 2 µM: 100%
  remaining at 10 min, 2 µM: 130%
  remaining at 0.5 h, 2 µM: 114%
  remaining at 1 h, 2 µM: 72.9%
  remaining at 2 h, 2 µM: 55.8%

## C=C(C)C1C2OC(=O)C1(C)C1(O)CC3OC34C(=O)OC2C41C (centres unmarked) [5MePXN, 5-methylpicrotoxinin]
[1]
  stability to acid: stable
  degradation in acid: did not react at all
[2]; 5MePXN vs. PXN
  increase of extrapolated half-life by C5 methylation, mouse plasma: 2.1 X
[2]
  T½ in mouse plasma: 3.45 h
  half-life at 2 µM: 3.45 h
  remaining at 0 h, 2 µM: 100%
  remaining at 10 min, 2 µM: 97.9%
  remaining at 0.5 h, 2 µM: 87.9%
  remaining at 1 h, 2 µM: 75.7%
  remaining at 2 h, 2 µM: 68%
[4]
  stability to catalytic NaOMe: did not observe any consumption
  competition experiment, 1:1 mixture of PXN and 5MePXN: completely persisted
[4]; 0 min
  concentration in competitive methanolysis: 3268 µM
[4]; 5 min
  concentration in competitive methanolysis: 3268 µM
[4]; 10 min
  concentration in competitive methanolysis: 3268 µM
[4]; 15 min
  concentration in competitive methanolysis: 3268 µM
[4]; 20 min
  concentration in competitive methanolysis: 3268 µM
[4]; 25 min
  concentration in competitive methanolysis: 3268 µM
[4]; 30 min
  concentration in competitive methanolysis: 3268 µM
[4]; 35 min
  concentration in competitive methanolysis: 3268 µM
[4]; 40 min
  concentration in competitive methanolysis: 3268 µM
[4]; 45 min
  concentration in competitive methanolysis: 3268 µM
[4]; 50 min
  concentration in competitive methanolysis: 3268 µM
[4]; 55 min
  concentration in competitive methanolysis: 3268 µM
[4]; 60 min
  concentration in competitive methanolysis: 3268 µM
[4]; 65 min
  concentration in competitive methanolysis: 3268 µM
[4]; 70 min
  concentration in competitive methanolysis: 3268 µM
[4]; 75 min
  concentration in competitive methanolysis: 3268 µM
[4]; 80 min
  concentration in competitive methanolysis: 3268 µM
[4]; 85 min
  concentration in competitive methanolysis: 3268 µM
[4]; 90 min
  concentration in competitive methanolysis: 3268 µM
[4]; 95 min
  concentration in competitive methanolysis: 3268 µM
[4]; 100 min
  concentration in competitive methanolysis: 3268 µM
[4]; 110 min
  concentration in competitive methanolysis: 3268 µM
[4]; 120 min
  concentration in competitive methanolysis: 3268 µM
[4]; 130 min
  concentration in competitive methanolysis: 3268 µM
[4]; 140 min
  concentration in competitive methanolysis: 3268 µM
[4]; 280 min
  concentration in competitive methanolysis: 3268 µM
[4]; 200 mol % (2 equivalents) NaOMe
  stability to excess NaOMe: had no effect; also recorded: stable
[5]
  t1/2 of degradation (pseudo-first order): 120 h
Rat GABAA ion channel
  IC50: 2100 ± 300 nM
[6]; 5MePXN vs. PXN
  increase of extrapolated half-life by C5 methylation, human plasma: 2.7 X
[6]
  T½ in human plasma: 4.82 h and > 4.82 h
  half-life at 2 µM: 4.82 h
  remaining at 0 h, 2 µM: 100%
  remaining at 10 min, 2 µM: 103%
  remaining at 0.5 h, 2 µM: 93.7%
  remaining at 1 h, 2 µM: 84.5%
  remaining at 2 h, 2 µM: 77.7%

— publication PMC10721898, “C5 methylation confers accessibility, stability and selectivity to picrotoxinin” (Nature Communications, 2023)
